Paper PMC6409085, “Three odorant-binding proteins are involved in the behavioral response of Sogatella furcifera to rice plant volatiles” (PeerJ, 2019)
Several values for one entry are separate records, joined by “and”; a condition that tells them apart may be missing. Equal entries are not always repeated.

Key:
Assay in all cases: biochemical
Format in all cases: binding
SfurOBP3 = SfurOBP3 (Sogatella furcifera, UniProt V5T818); details: for Fluorescence competitive binding assay, fluorescence intensity: OBP3, three replicate columns
Chain of SfurOBP3 (V5T818 entry or part of it): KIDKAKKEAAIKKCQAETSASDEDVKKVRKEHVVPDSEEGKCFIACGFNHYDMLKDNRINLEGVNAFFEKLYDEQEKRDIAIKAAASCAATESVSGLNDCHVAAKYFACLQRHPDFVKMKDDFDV
Outline: (§1)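 Protein 2.0 µM + 1-NPN 2.0 µM, 50 mM Tris-HCl pH 7.4; competitor odorants 2, 4 … 20 µM final; read 2 min post-addition, ex 337/em 390–490 nm; n=3. K1-NPN from 1-NPN titration/Scatchard; Ki from IC50 corrected for free 1-NPN.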

SfurOBP1 = SfurOBP1 (Sogatella furcifera, UniProt V5T8N5); details: for Fluorescence competitive binding assay, fluorescence intensity: OBP1, three replicate columns
Chain of SfurOBP1 (V5T8N5 entry or part of it): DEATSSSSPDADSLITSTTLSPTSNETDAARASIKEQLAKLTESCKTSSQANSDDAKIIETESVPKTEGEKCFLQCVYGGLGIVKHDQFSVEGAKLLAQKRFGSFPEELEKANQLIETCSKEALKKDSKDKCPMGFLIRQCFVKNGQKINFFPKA
Outline: as §1

SfurOBP2 = SfurOBP2 (Sogatella furcifera, UniProt V5T759)
Chain of SfurOBP2 (V5T759 entry or part of it): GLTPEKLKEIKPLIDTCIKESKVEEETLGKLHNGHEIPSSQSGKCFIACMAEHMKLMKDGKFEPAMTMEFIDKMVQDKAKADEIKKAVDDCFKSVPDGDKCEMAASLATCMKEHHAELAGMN
Outline: as §1

SfurOBP11 = SfurOBP11 (Sogatella furcifera, UniProt V5T6E3)
Chain of SfurOBP11 (V5T6E3 entry or part of it): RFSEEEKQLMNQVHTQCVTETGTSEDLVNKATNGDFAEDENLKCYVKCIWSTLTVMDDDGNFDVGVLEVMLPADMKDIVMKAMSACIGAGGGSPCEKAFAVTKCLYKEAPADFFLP
Outline: as §1

## CCCCCCCCCCCCO [lauryl alcohol]
SfurOBP3; ligand concentration 2
  Fluorescence competitive binding assay, fluorescence intensity: 67563 and 64113 and 67485
SfurOBP3; ligand concentration 4
  Fluorescence competitive binding assay, fluorescence intensity: 70812 and 72838 and 74184
SfurOBP3; ligand concentration 6
  Fluorescence competitive binding assay, fluorescence intensity: 65634 and 64114 and 68940
SfurOBP3; ligand concentration 8
  Fluorescence competitive binding assay, fluorescence intensity: 62878 and 67093 and 68072
SfurOBP3; ligand concentration 10
  Fluorescence competitive binding assay, fluorescence intensity: 60134 and 69541 and 65795
SfurOBP3; ligand concentration 12
  Fluorescence competitive binding assay, fluorescence intensity: 68479 and 64625 and 78735
SfurOBP3; ligand concentration 14
  Fluorescence competitive binding assay, fluorescence intensity: 60140 and 40039 and 67409
SfurOBP3; ligand concentration 16
  Fluorescence competitive binding assay, fluorescence intensity: 38861 and 39269 and 45097
SfurOBP3; ligand concentration 18
  Fluorescence competitive binding assay, fluorescence intensity: 51398 and 59369 and 52474
SfurOBP3; ligand concentration 20
  Fluorescence competitive binding assay, fluorescence intensity: 68555 and 48789 and 43446
SfurOBP3; SfurOBP3, protein and 1-NPN both 2.0 µM, competitor 2-20 µM, read-out: IC50
  IC50: > 20 µM
SfurOBP1; ligand concentration 2 (μM)
  Fluorescence competitive binding assay, fluorescence intensity: 7624 and 6465 and 8545
SfurOBP1; ligand concentration 4 (μM)
  Fluorescence competitive binding assay, fluorescence intensity: 7313 and 7318 and 7353
SfurOBP1; ligand concentration 6 (μM)
  Fluorescence competitive binding assay, fluorescence intensity: 7143 and 7275 and 7922
SfurOBP1; ligand concentration 8 (μM)
  Fluorescence competitive binding assay, fluorescence intensity: 7358 and 7784 and 8873
SfurOBP1; ligand concentration 10 (μM)
  Fluorescence competitive binding assay, fluorescence intensity: 7141 and 7560 and 7926
SfurOBP1; ligand concentration 12 (μM)
  Fluorescence competitive binding assay, fluorescence intensity: 7810 and 7463 and 8566
SfurOBP1; ligand concentration 14 (μM)
  Fluorescence competitive binding assay, fluorescence intensity: 7736 and 8413 and 7236
SfurOBP1; ligand concentration 16 (μM)
  Fluorescence competitive binding assay, fluorescence intensity: 8777 and 6935 and 7055
SfurOBP1; ligand concentration 18 (μM)
  Fluorescence competitive binding assay, fluorescence intensity: 9193 and 9578 and 9152
SfurOBP1; ligand concentration 20 (μM)
  Fluorescence competitive binding assay, fluorescence intensity: 11048 and 9816 and 8594
SfurOBP1; SfurOBP1, protein and 1-NPN both 2.0 µM, competitor 2-20 µM, read-out: IC50
  IC50: > 20 µM
SfurOBP2; SfurOBP2, protein and 1-NPN both 2.0 µM, competitor 2-20 µM, read-out: IC50
  IC50: > 20 µM
SfurOBP2; ligand concentration 2 (unit not given), replicate column 1 of 3
  Fluorescence competitive binding assay, OBP2 (raw fluorescence reading): 17977
SfurOBP2; ligand concentration 2 (unit not given), replicate column 2 of 3
  Fluorescence competitive binding assay, OBP2 (raw fluorescence reading): 18256
SfurOBP2; ligand concentration 2 (unit not given), replicate column 3 of 3
  Fluorescence competitive binding assay, OBP2 (raw fluorescence reading): 18222
SfurOBP2; ligand concentration 4 (unit not given), replicate column 1 of 3
  Fluorescence competitive binding assay, OBP2 (raw fluorescence reading): 21586
SfurOBP2; ligand concentration 4 (unit not given), replicate column 2 of 3
  Fluorescence competitive binding assay, OBP2 (raw fluorescence reading): 19639
SfurOBP2; ligand concentration 4 (unit not given), replicate column 3 of 3
  Fluorescence competitive binding assay, OBP2 (raw fluorescence reading): 16260
SfurOBP2; ligand concentration 6 (unit not given), replicate column 1 of 3
  Fluorescence competitive binding assay, OBP2 (raw fluorescence reading): 18208
SfurOBP2; ligand concentration 6 (unit not given), replicate column 2 of 3
  Fluorescence competitive binding assay, OBP2 (raw fluorescence reading): 18064
SfurOBP2; ligand concentration 6 (unit not given), replicate column 3 of 3
  Fluorescence competitive binding assay, OBP2 (raw fluorescence reading): 15812
SfurOBP2; ligand concentration 8 (unit not given), replicate column 1 of 3
  Fluorescence competitive binding assay, OBP2 (raw fluorescence reading): 16946
SfurOBP2; ligand concentration 8 (unit not given), replicate column 2 of 3
  Fluorescence competitive binding assay, OBP2 (raw fluorescence reading): 12445
SfurOBP2; ligand concentration 8 (unit not given), replicate column 3 of 3
  Fluorescence competitive binding assay, OBP2 (raw fluorescence reading): 14953
SfurOBP2; ligand concentration 10 (unit not given), replicate column 1 of 3
  Fluorescence competitive binding assay, OBP2 (raw fluorescence reading): 16387
SfurOBP2; ligand concentration 10 (unit not given), replicate column 2 of 3
  Fluorescence competitive binding assay, OBP2 (raw fluorescence reading): 15939
SfurOBP2; ligand concentration 10 (unit not given), replicate column 3 of 3
  Fluorescence competitive binding assay, OBP2 (raw fluorescence reading): 15218
SfurOBP2; ligand concentration 12 (unit not given), replicate column 1 of 3
  Fluorescence competitive binding assay, OBP2 (raw fluorescence reading): 16171
SfurOBP2; ligand concentration 12 (unit not given), replicate column 2 of 3
  Fluorescence competitive binding assay, OBP2 (raw fluorescence reading): 15043
SfurOBP2; ligand concentration 12 (unit not given), replicate column 3 of 3
  Fluorescence competitive binding assay, OBP2 (raw fluorescence reading): 14391
SfurOBP2; ligand concentration 14 (unit not given), replicate column 1 of 3
  Fluorescence competitive binding assay, OBP2 (raw fluorescence reading): 14286
SfurOBP2; ligand concentration 14 (unit not given), replicate column 2 of 3
  Fluorescence competitive binding assay, OBP2 (raw fluorescence reading): 13952
SfurOBP2; ligand concentration 14 (unit not given), replicate column 3 of 3
  Fluorescence competitive binding assay, OBP2 (raw fluorescence reading): 14683
SfurOBP2; ligand concentration 16 (unit not given), replicate column 1 of 3
  Fluorescence competitive binding assay, OBP2 (raw fluorescence reading): 13014
SfurOBP2; ligand concentration 16 (unit not given), replicate column 2 of 3
  Fluorescence competitive binding assay, OBP2 (raw fluorescence reading): 12749
SfurOBP2; ligand concentration 16 (unit not given), replicate column 3 of 3
  Fluorescence competitive binding assay, OBP2 (raw fluorescence reading): 13096
SfurOBP2; ligand concentration 18 (unit not given), replicate column 1 of 3
  Fluorescence competitive binding assay, OBP2 (raw fluorescence reading): 12746
SfurOBP2; ligand concentration 18 (unit not given), replicate column 2 of 3
  Fluorescence competitive binding assay, OBP2 (raw fluorescence reading): 12759
SfurOBP2; ligand concentration 18 (unit not given), replicate column 3 of 3
  Fluorescence competitive binding assay, OBP2 (raw fluorescence reading): 12788
SfurOBP2; ligand concentration 20 (unit not given), replicate column 1 of 3
  Fluorescence competitive binding assay, OBP2 (raw fluorescence reading): 13087
SfurOBP2; ligand concentration 20 (unit not given), replicate column 2 of 3
  Fluorescence competitive binding assay, OBP2 (raw fluorescence reading): 12766
SfurOBP2; ligand concentration 20 (unit not given), replicate column 3 of 3
  Fluorescence competitive binding assay, OBP2 (raw fluorescence reading): 13106
SfurOBP11; SfurOBP11, protein and 1-NPN both 2.0 µM, competitor 2-20 µM, read-out: IC50
  IC50: > 20 µM
SfurOBP11; ligand concentration 2, replicate 1
  Fluorescence intensity, fluorescence competitive binding assay, OBP11: 24217
SfurOBP11; ligand concentration 2, replicate 2
  Fluorescence intensity, fluorescence competitive binding assay, OBP11: 24290
SfurOBP11; ligand concentration 2, replicate 3
  Fluorescence intensity, fluorescence competitive binding assay, OBP11: 24783
SfurOBP11; ligand concentration 4, replicate 1
  Fluorescence intensity, fluorescence competitive binding assay, OBP11: 24290
SfurOBP11; ligand concentration 4, replicate 2
  Fluorescence intensity, fluorescence competitive binding assay, OBP11: 24322
SfurOBP11; ligand concentration 4, replicate 3
  Fluorescence intensity, fluorescence competitive binding assay, OBP11: 23442
SfurOBP11; ligand concentration 6, replicate 1
  Fluorescence intensity, fluorescence competitive binding assay, OBP11: 24952
SfurOBP11; ligand concentration 6, replicate 2
  Fluorescence intensity, fluorescence competitive binding assay, OBP11: 22901
SfurOBP11; ligand concentration 6, replicate 3
  Fluorescence intensity, fluorescence competitive binding assay, OBP11: 24534
SfurOBP11; ligand concentration 8, replicate 1
  Fluorescence intensity, fluorescence competitive binding assay, OBP11: 24078
SfurOBP11; ligand concentration 8, replicate 2
  Fluorescence intensity, fluorescence competitive binding assay, OBP11: 21947
SfurOBP11; ligand concentration 8, replicate 3
  Fluorescence intensity, fluorescence competitive binding assay, OBP11: 24599
SfurOBP11; ligand concentration 10, replicate 1
  Fluorescence intensity, fluorescence competitive binding assay, OBP11: 22957
SfurOBP11; ligand concentration 10, replicate 2
  Fluorescence intensity, fluorescence competitive binding assay, OBP11: 24005
SfurOBP11; ligand concentration 10, replicate 3
  Fluorescence intensity, fluorescence competitive binding assay, OBP11: 23087
SfurOBP11; ligand concentration 12, replicate 1
  Fluorescence intensity, fluorescence competitive binding assay, OBP11: 20961
SfurOBP11; ligand concentration 12, replicate 2
  Fluorescence intensity, fluorescence competitive binding assay, OBP11: 21769
SfurOBP11; ligand concentration 12, replicate 3
  Fluorescence intensity, fluorescence competitive binding assay, OBP11: 22579
SfurOBP11; ligand concentration 14, replicate 1
  Fluorescence intensity, fluorescence competitive binding assay, OBP11: 19736
SfurOBP11; ligand concentration 14, replicate 2
  Fluorescence intensity, fluorescence competitive binding assay, OBP11: 20687
SfurOBP11; ligand concentration 14, replicate 3
  Fluorescence intensity, fluorescence competitive binding assay, OBP11: 20422
SfurOBP11; ligand concentration 16, replicate 1
  Fluorescence intensity, fluorescence competitive binding assay, OBP11: 16888
SfurOBP11; ligand concentration 16, replicate 2
  Fluorescence intensity, fluorescence competitive binding assay, OBP11: 20499
SfurOBP11; ligand concentration 16, replicate 3
  Fluorescence intensity, fluorescence competitive binding assay, OBP11: 18999
SfurOBP11; ligand concentration 18, replicate 1
  Fluorescence intensity, fluorescence competitive binding assay, OBP11: 18870
SfurOBP11; ligand concentration 18, replicate 2
  Fluorescence intensity, fluorescence competitive binding assay, OBP11: 19005
SfurOBP11; ligand concentration 18, replicate 3
  Fluorescence intensity, fluorescence competitive binding assay, OBP11: 19199
SfurOBP11; ligand concentration 20, replicate 1
  Fluorescence intensity, fluorescence competitive binding assay, OBP11: 20952
SfurOBP11; ligand concentration 20, replicate 2
  Fluorescence intensity, fluorescence competitive binding assay, OBP11: 19127
SfurOBP11; ligand concentration 20, replicate 3
  Fluorescence intensity, fluorescence competitive binding assay, OBP11: 18042
